In US20250195521A1 (Revolution Medicines, Inc., priority 2020, published 2025):
pEC50, pIC50: −log10 of the molar value. Like-named read-outs stand apart in the source and are kept apart here.

Experiments:
Type in all cases: cell-based, human
[1] = tested on: K-Ras G12C (NCI-H358 cells); assay: Potency assay: pERK in NCI-H358 cells; conditions: read-out: pERK EC50 (H358 KRAS G12C)
Summary of the method: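 Cells plated the day before were exposed for 4 h at 37° C, 5% CO2 to a 10-point, 3-fold DMSO dilution series (10 mM top stock), in duplicate. Phospho-ERK was read by AlphaLISA SureFire Ultra or by In-Cell Western with DRAQ5 DNA stain, and IC50 came from a 4-parameter sigmoidal fit.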

[2] = tested on: NCI-H358 (K-Ras G12C); assay: CellTiter-Glo cell viability assay, NCI-H358
Summary of the method: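 Cells seeded, compound added directly to plates; day 5: plates to RT ~30 min, CellTiter-Glo luminescence; (sample/avg DMSO)*100; 4-parameter fit.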

[3] = tested on: Capan-1 cells (K-Ras G12V); assay: CellTiter-Glo cell viability, Capan-1; conditions: Homo sapiens, CAPAN-1, 120 h, K-Ras G12V, 5-day treatment; read-out: Capan-1 Cell Viability IC50
Experimental: Note—The following protocol describes a procedure for monitoring cell viability of K-Ras mutant cancer cell lines in response to a compound of the invention. Other RAS isoforms may be employed, though the number of cells to be seeded will vary based on cell line used.
Test compounds (132.5 nl) were directly dispensed into the assay plates containing cells. […] On day 5, assay plates and their contents were equilibrated to room temperature for approximately 30 minutes. […] Luminescence was measured using the PerkinElmer Enspire. Data were normalized by the following: (Sample signal/Avg. DMSO)*100. The data were fit using a four-parameter logistic fit.

[4] = 5-day treatment; read-out: H358 Cell Viability assay data (K-Ras G12C, IC50)
[5] = Homo sapiens, NCI-H358 cells, 4 hours
[6] = Homo sapiens, NCI-H358, 120 h, 5-day treatment; read-out: H358 Cell Viability assay data (K-Ras G12C, IC50)
[7] = read-out: H358 Cell Viability assay data (K-Ras G12C, IC50); 5-day treatment

Structure (SMILES) | pEC50 [1, 5] | pIC50 [2, 6] | further results
C=CC(=O)N1CC[C@H](C(=O)N(C)[C@H](C(=O)N[C@H]2Cc3cc(O)cc(c3)-c3ccc4c(c3)c(c(-c3ccccc3CCOC)n4C(C)(C)C#N)CC(C)(C)COC(=O)[C@@H]3CCCN(N3)C2=O)C(C)C)C1 [Compound A34] |  |  | pEC50 ([1]; NCI-H358 cells, 4 hours): > 5.30; pIC50 [2, 4]: 7.00 to 8.00
CCn1c(-c2cnccc2COC)c2c3cc(ccc31)-c1cc(O)cc(c1)C[C@H](NC(=O)[C@H](C(C)C)N(C)C(=O)CN1CCOCC1)C(=O)N1CCC[C@H](N1)C(=O)OCC(C)(C)C2 [Compound A65] | > 5.30 | 6.00 to 7.00 | 
CCn1c(-c2ccccc2CCOC)c2c3cc(ccc31)-c1cc(O)cc(c1)C[C@H](NC(=O)[C@H](C(C)C)N(C)C(=O)CCN)C(=O)N1CCC[C@H](N1)C(=O)OCC(C)(C)C2 [Compound A70] | > 5.30 | 7.00 to 8.00 | 
CCn1c(-c2cnccc2COC)c2c3cc(ccc31)-c1cc(O)cc(c1)C[C@H](NC(=O)[C@H](C(C)C)N(C)CC(F)(F)F)C(=O)N1CCC[C@H](N1)C(=O)OCC(C)(C)C2 [Compound A77] | > 5.30 | 7.00 to 8.00 | 
CCn1c(-c2cnccc2COC)c2c3cc(ccc31)-c1cc(O)cc(c1)C[C@H](NC(=O)[C@H](C(C)C)N(C)C(=O)[C@@H]1CN(C(C)=O)C[C@@H]1C(F)(F)F)C(=O)N1CCC[C@H](N1)C(=O)OCC(C)(C)C2 [Compound A80] | > 5.30 | 6.00 to 7.00 | 
CCn1c(-c2cnccc2COC)c2c3cc(ccc31)-c1cc(O)cc(c1)C[C@H](NC(=O)[C@H](C(C)C)N(C)C(=O)[C@@H]1CCCO1)C(=O)N1CCC[C@H](N1)C(=O)OCC(C)(C)C2 [Compound A91] | > 5.30 | > 8.00 | 
CCn1c(-c2cccnc2[C@H](C)OC)c2c3cc(ccc31)-c1cc(O)cc(c1)C[C@H](NC(=O)[C@H](C(C)C)N(C)C(=O)[C@H]1CCN(C(=O)CN(C)C)C1)C(=O)N1CCC[C@H](N1)C(=O)OCC(C)(C)C2 [Compound A95] | > 5.30 | 7.00 to 8.00 | 
CC#CC(=O)N1CC[C@H](C(=O)N(C)[C@H](C(=O)N[C@H]2Cc3cc(O)cc(c3)-c3ccc4c(c3)c(c(-c3cccnc3[C@H](C)OC)n4CC)CC(C)(C)COC(=O)[C@@H]3CCCN(N3)C2=O)C(C)C)C1 [Compound A145, (2S)-2-{1-[(3S)-1-(but-2-ynoyl)pyrrolidin-3-yl]-N-methylformamido}-N-[(8S,14S,20M)-22-ethyl-4-hydroxy-21-{2-[(1S)-1-methoxyethyl]pyridin-3-yl}-18, 18-dimethyl-9,15-dioxo-16-oxa-10,22,28-triazapentacyclo [18.5.2.1^2,6.1^10,14.0^23,27]nonacosa-1 (26),2,4,6 (29),20,23 (27),24-heptaen-8-yl]-3-methylbutanamide] |  |  | pEC50 ([1]; Homo sapiens, NCI-H358, 4 h): > 5.30; IC50 ([2]; Homo sapiens, NCI-H358, 120 h, read-out: H358 Cell Viability assay data (K-Ras G12C, IC50, uM), 5-day treatment): < 0.01 µM; pIC50 [2, 7]: 7.00 to 8.00
CCn1c(-c2cccnc2[C@H](C)OC)c2c3cc(ccc31)-c1cc(O)cc(c1)C[C@H](NC(=O)[C@H](C(C)C)N(C)C(=O)C13CNCC1C3)C(=O)N1CCC[C@H](N1)C(=O)OCC(C)(C)C2 (stereo partly shown) [Compound A155] | > 5.30 | > 8.00 | pIC50 [2, 4]: 7.00 to 8.00
CCn1c(-c2cccnc2[C@H](C)OC)c2c3cc(ccc31)-c1cc(O)cc(c1)C[C@H](NC(=O)[C@H](C(C)C)N(C)C(=O)C1CC13CC3)C(=O)N1CCC[C@H](N1)C(=O)OCC(C)(C)C2 (stereo partly shown) [Compound A156] | > 5.30 | 7.00 to 8.00 | 
CC#CC(=O)N1CC[C@H](C(=O)N(C)[C@@H](C(=O)N[C@H]2Cc3cc(O)cc(c3)-c3ccc4c(c3)c(c(-c3cccnc3[C@H](C)OC)n4CC)CC(C)(C)COC(=O)[C@@H]3CCCN(N3)C2=O)C(C)C)C1 [Compound A199] |  |  | pEC50 ([1]; Homo sapiens, NCI-H358, 4 h): > 5.30; pIC50 [2, 7]: 6.00 to 7.00
CCn1c(-c2cccnc2[C@H](C)OC)c2c3cc(ccc31)-c1cccc(c1)C[C@H](NC(=O)[C@H](C(C)C)N(C)C(=O)[C@H]1CCN(C(=O)/C=C/CN3CC(OC)C3)C1)C(=O)N1CCC[C@H](N1)C(=O)OCC(C)(C)C2 [Compound A203] |  |  | pEC50 ([1]; NCI-H358 cells, 4 hours): > 5.30; pIC50 [2, 4]: < 5.00
CCn1c(-c2cccnc2[C@H](C)OC)c2c3cc(ccc31)-c1cccc(c1)C[C@H](NC(=O)[C@H](C(C)C)N(C)C(=O)[C@H]1CCN(C(=O)/C=C/CN3CC(OC)C3)C1)C(=O)N1CCC[C@H](N1)C(=O)OCC(C)(C)C2 [Compound A204] | > 5.30 |  | pIC50 [2, 4]: 7.00 to 8.00
CCn1c(-c2cccnc2[C@H](C)OC)c2c3cc(ccc31)-c1cc(O)cc(c1)C[C@H](NC(=O)[C@H](C(C)C)N(C)C(=O)C1(CO)CC1)C(=O)N1CCC[C@H](N1)C(=O)OCC(C)(C)C2 [Compound A232] | > 5.30 | 7.00 to 8.00 | 
C=CC(=O)N1CC[C@H](C(=O)N(C)[C@H](C(=O)N[C@H]2Cc3cc(sn3)-c3ccc4c(c3)c(c(-c3cccnc3[C@H](C)OC)n4CC)CC(C)(C)COC(=O)[C@@H]3CCCN(N3)C2=O)C(C)C)C1 [Compound A340] | > 5.30 | 6.00 to 7.00 | 
CCn1c(-c2cccnc2[C@H](C)OC)c2c3cc(ccc31)-c1cc(O)cc(c1)C[C@H](NC(=O)[C@H](C(C)C)N(C)C(=O)[C@H]1CCN(C(=O)[C@@H]3CCCN3C)C1)C(=O)N1CCC[C@H](N1)C(=O)OCC(C)(C)C2 [Compound A385] | > 5.30 | > 8.00 | 
CCn1c(-c2cccnc2[C@H](C)OC)c2c3cc(ccc31)-c1csc(n1)C[C@H](NC(=O)[C@H](C(C)C)N(C)C(=O)N1CC[C@@H]1CN(C)C)C(=O)N1CCC[C@H](N1)C(=O)OCC(C)(C)C2 [Compound A502] | > 5.30 | > 8.00 | pIC50 [3]: 6.00 to 7.00
CCn1c(-c2cccnc2[C@H](C)OC)c2c3cc(ccc31)-c1csc(n1)C[C@H](NC(=O)[C@H](C(C)C)N(C)C(=O)N1CC3(CC(O)C3)C1)C(=O)N1CCC[C@H](N1)C(=O)OCC(C)(C)C2 [Compound A510] | > 5.30 | 7.00 to 8.00 | 
CCn1c(-c2cccnc2[C@H](C)OC)c2c3cc(ccc31)-c1csc(n1)C[C@H](NC(=O)[C@H](C(C)C)N(C)C(=O)N1CCN3CCOC[C@H]3C1)C(=O)N1CCC[C@H](N1)C(=O)OCC(C)(C)C2 [Compound A548] |  | 6.00 to 7.00 | pIC50 [3]: 7.00 to 8.00
CCn1c(-c2cccnc2[C@H](C)OC)c2c3cc(ccc31)-c1csc(n1)C[C@H](NC(=O)[C@H](C(C)C)N(C)C(=O)N1CC(N(C)S(C)(=O)=O)C1)C(=O)N1CCC[C@H](N1)C(=O)OCC(C)(C)C2 [Compound A550] | > 5.30 | > 8.00 | 
